Results on 5 compounds are retold here after patent publication US20220315539A1, “PHENAZINE DERIVATIVE AND USE THEREOF FOR THE TREATMENT OF CANCER” (CENTRE NATIONAL DE LA RECHERCHE SCIENTIFIQUE, priority 2019, published 2022).

A short description of data set [1]: Fluorescence quantum yield in acetonitrile. It counts as physicochemical. As to conditions: for quantum yield of fluorescence ϕf: in MeCN, excitation at 483 nm, emission 637 nm (II) or 550 nm (II-H), reference tetraphenylporphyrin. From the text: The inventors then set out to measure the value ϕf of the quantum yield of fluorescence of the following compound taken up in acetonitrile
To do this, the inventors measured the absorbance (relative intensity) as a function of the wavelength (in nm) in the presence of increasing doses of 1,8-[…] (DBU—0 to 2 equivalents).
Phenazinium II and its II-H conjugate base fluoresce in MeCN at neutral or basic pH. […] The reference used for the calculation of the fluorescence quantum yield is tetraphenylporphyrin in acetonitrile (ϕf=0.15).
Calculation of ϕ: It is determined by measuring the emission intensity of a solution of known concentration; the reference used to calculate the fluorescence quantum yield here is tetraphenylporphyrin in acetonitrile (ϕf=0.15).

In another data set the test system is MCF-7 tumor cells. The data set can be described thus: Internalization kinetics with CLARIOstar plate reader. In kind it is cell-based, human. As to conditions: MCF-7, in less than 24 hours. How it is done:
Data are percent internalization (remaining fluorescence/total fluorescence) as a function of time in hours. Data are means of three experiments±standard deviation.
The internalization kinetics were carried out with a CLARIOstar reader in order to quantify the internalization of the compound in the MCF-7 tumor cells. The values, corresponding to the ratio of the residual fluorescence/the total fluorescence, are presented in the form of means of three experiments, ±the standard deviation.

A short description of data set [2]: Singlet oxygen (1O2) production quantum yield. It counts as physicochemical. How it is done: The absorption spectra were measured with a Perkin-Elmer double beam UV-visible spectrophotometer (Lambda EZ 210). The fluorescence spectrum was measured with a Fluorolog FL3-222 spectrofluorimeter (Horiba Jobin Yvon, Longjumeau, France) equipped with a 450 W xenon arc lamp, a thermostated compartment (25° C.), a photomultiplier UV-visible R928 ([…] Japan) and an InGaAs infrared detector cooled with liquid nitrogen (DSS-16A020L Electro-Optical System Inc, Phoenixville, Pa., USA). The excitation beam is separated by an SPEX dual grating monochromator (1200 lines/mm blazed at 330 nm). The fluorescence was measured by the UV-Visible detector via the SPEX double grating emission monochromator (1200 lines/mm blazed at 500 nm). The production of singlet oxygen was measured by the infrared detector via the SPEX double grating emission monochromator (600 lines/mm blazed at 1 μm). All spectra were measured using 4-sided quartz cuvettes. The absorbance values at the excitation wavelength of the references and samples have been adjusted to approximately 0.2.
By this method, the inventors were able to measure the quantum yield ϕΔ, which is 0.11 for the compound

The next data set has as its system MCF7 cells. The data set can be described thus: One-photon photodynamic therapy in vitro, MTT viability. As to conditions: MCF7, 100 nM, 5 h incubation, one-photon irradiation (λirrad.=514 nm), MTT two days later. In kind it is cell-based, human. How it is done: FIG. […] Two days later, the cells were subjected to a colorimetric cell viability assay (MTT). The experiment was carried out 3 times.
The inventors tested the effect of the compounds according to the invention in photodynamic therapy. MCF7 cells were incubated with the compound of formula
[…] Two days later, the cells were subjected to a colorimetric cell viability assay (MTT).

Data set [3] has as its system MCF-7 cells. The data set can be described thus: Two-photon photodynamic therapy in vitro. It counts as cell-based, human. As to conditions: two-photon λirrad.=810 nm, irradiation 5 seconds, 100 nM. How it is done: As a control, untreated MCF7 cells without irradiation (A1), after irradiation at 790 nm (B1) or 810 nm (C1) are presented. […] Data are means of three experiments±standard deviation.
Two-photon photodynamic therapy (λirrad.=810 nm) has shown very encouraging results, since nearly 50% of tumor cells are killed without optimization (irradiation for only 5 seconds at a very low concentration of 100 nM of compound according to the invention).

The test system of data set [4] is MCF-7 cells. The data set can be described thus: Internalization by flow cytometry (red fluorescent cells). In kind it is cell-based, human. As to conditions: MCF-7, 0.5 nM. How it is done:
by live MCF-7 cancer cells. Cells were treated with 0.5 nM compound for 1, 3, 6 or 24 h and red fluorescence was measured by flow cytometry. […] The x-axis represents the incubation time in hours and the y-axis the percentage of red fluorescent cells.
(§1) To do this, MCF-7 cells or healthy donor fibroblasts have been treated or not with 0.5 nM of compound of formula
(§2) for 1, 3, 6 or 24 h, and cell fluorescence was assessed by flow cytometry by detecting the number of cells with red fluorescence.
(A flow cytometer gives signals particle by particle.)

The test system of data set [5] is healthy donor fibroblasts. The description is as above. As to conditions: 0.5 nM. It counts as cell-based. How it is done: by healthy living cells of the fibroblast type. Cells were treated with 0.5 nM compound for 1, 3, 6 or 24 h and red fluorescence was measured by flow cytometry. […] The x-axis represents the incubation time in hours and the y-axis the percentage of red fluorescent cells.
as §1, §2

On to `CCCCCCCCNc1ccc2nc3cc(NC(C)(C)C)c(=N)cc-3n(CCCCCCCC)c2c1` [II-H], for which the “quantum yield of fluorescence ϕf” value in data set [1] was 0.08.
Take `CCCCCCCCNc1ccc2nc3cc(NC(C)(C)C)c(N)cc3[n+](CCCCCCCC)c2c1` [II]: the “quantum yield of fluorescence ϕf” value in data set [1] is 0.76. The “brightness (B=ε×ϕ)” value in data set [1] (in acetonitrile) is listed as “about 50000”. Further, in the data set with MCF-7 tumor cells, the “percent internalization (compound penetrating the cell)” value was 10%.
With `CCCCCCCCNc1ccc2nc3cc(NC(C)(C)C)c(N)cc3[n+](CCCCCCCC)c2c1` [drawing 44], the “singlet oxygen quantum yield ϕΔ” value in data set [2] was 0.11.
With `CCCCCCCCNc1ccc2nc3cc(NC(C)(C)C)c(N)cc3[n+](CCCCCCCC)c2c1` [drawing 45], the tumor cells killed with MCF7 cells is 98%; with MCF-7 cells [3], approximately 50%.
As for `CCCCCCCCNc1ccc2nc3cc(NC(C)(C)C)c(N)cc3[n+](CCCCCCCC)c2c1` [drawing 47], the “cells that have internalized the compound” value in the data set on MCF-7 cells [4] (6 h incubation) was found to be 46%; with MCF-7 cells [4] (24 h incubation), 90%; in data set [5] (6 h incubation) it was 18%; in data set [5] (24 h incubation) it was 24%.
